Measured values as given in patent US20050187288A1, “Beta-lapachone and methods of treating cancer” (priority 2004, published 2005).

Tests used:
[1] = test system: 60 cancer cell lines; conditions: FDA approved agents, publicly available data; cited from earlier work
[2] = test system: ASPC-1; test: Colony formation assay, combination with Taxol; format: cell-based, human; conditions: β-Lapachone 4 μM, Taxol 0.2 μM, 4 hours
Experimental: Control wells were treated with equivalent volumes of DMSO. After 4 hours cells were rinsed and fresh medium is added. Cultures were observed daily for 10-20 days and then were fixed and stained. […] DNA laddering formation and annexin staining indicate that cell death is due to apoptosis.

[3] = test system: G480 lung cancer cells; test: Colony formation assay, single agents and combination; format: cell-based; conditions: G480; β-lapachone 4 μM, 4 hours; average (SEM) of three experiments
Text: Control plates received the same volume of DMSO alone. […] Treated wells were presented as percentage of control. Data were presented as an average (+SEM) from three independent experiments.

Structure (SMILES)	mean LC50 across all cells compared with the mean of β-lapachone [1]	Colonies, Percentage of control [2]	Colonies (percent control) [3]
O=C1c2c(O)ccc(O)c2C(=O)c2c(NCCNCCO)ccc(NCCNCCO)c21 [mitoxantrone]	equals it	–	–
CC(=O)O[C@H]1C(=O)[C@@]2(C)[C@H]([C@H](OC(=O)c3ccccc3)[C@]3(O)C[C@H](OC(=O)[C@H](O)[C@@H](NC(=O)c4ccccc4)c4ccccc4)C(C)=C1C3(C)C)[C@]1(OC(C)=O)CO[C@@H]1C[C@@H]2O [Taxol ®, paclitaxel, reference compound]	–	71 (0.8) Percentage of control	39 (2.6) percent control
